In patent US20240287080A1 (IDEAYA Biosciences Inc., priority 2021, published 2024):

biological target: T1, Pol theta (1-899) (Homo sapiens, UniProt O75417); test: Pol theta ATPase activity, NADH oxidation-coupled enzymatic assay (ATPase NADH coupling: Standard Screening: hPolQ); assay type: biochemical; settings: Pol theta (1-899) 5 nM, NADH oxidation-coupled ATPase assay; compounds of Table 3
T1 construct: Pol theta (1-899) (5 nM) in assay buffer
Summary of the method: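 NADH-coupled ATPase readout: 5 nM Pol theta (1-899) preincubated 15 min with 10-point compound series in Tris pH 7.80, KCl, MgCl2, DTT, BSA, Tween, glycerol, then 100 μM ATP, 300 nM 50-mer poly-dT ssDNA, NADH, PEP, LDH and PK added (stock levels). A340 followed 60 min; slopes fit four-parameter for IC50.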

T1 sequence (O75417 1-899): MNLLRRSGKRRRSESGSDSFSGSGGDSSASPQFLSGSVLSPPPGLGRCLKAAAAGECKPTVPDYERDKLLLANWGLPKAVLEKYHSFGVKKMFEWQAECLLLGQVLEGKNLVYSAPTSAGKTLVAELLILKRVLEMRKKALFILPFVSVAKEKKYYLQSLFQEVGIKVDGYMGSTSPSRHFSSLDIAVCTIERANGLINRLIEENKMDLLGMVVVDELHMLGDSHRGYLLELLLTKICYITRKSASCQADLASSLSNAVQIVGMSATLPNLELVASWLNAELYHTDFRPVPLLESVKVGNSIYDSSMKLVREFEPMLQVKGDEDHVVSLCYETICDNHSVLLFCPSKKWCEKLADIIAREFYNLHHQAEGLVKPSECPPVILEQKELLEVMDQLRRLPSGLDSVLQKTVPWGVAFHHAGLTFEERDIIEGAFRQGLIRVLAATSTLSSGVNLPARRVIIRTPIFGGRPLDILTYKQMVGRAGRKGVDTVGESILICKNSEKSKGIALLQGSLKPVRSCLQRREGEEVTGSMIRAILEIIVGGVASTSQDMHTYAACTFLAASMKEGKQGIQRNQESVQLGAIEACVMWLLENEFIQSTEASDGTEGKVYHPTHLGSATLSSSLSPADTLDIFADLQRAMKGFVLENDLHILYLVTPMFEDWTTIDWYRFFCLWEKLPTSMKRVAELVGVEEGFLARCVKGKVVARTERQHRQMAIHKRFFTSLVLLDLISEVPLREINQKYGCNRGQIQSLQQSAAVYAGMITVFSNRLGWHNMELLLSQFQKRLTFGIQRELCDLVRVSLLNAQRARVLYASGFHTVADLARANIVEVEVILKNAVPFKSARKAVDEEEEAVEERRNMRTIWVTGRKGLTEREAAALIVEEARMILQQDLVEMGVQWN

IC50 [nM] | Compound
1000 to 10000 | COc1nnc(NC(=O)c2cnc(C)cc2-c2ccc(CN(C)C)nc2)s1 [Example 474, 6-((dimethylamino)methyl)-N-(5-methoxy-1,3,4-thiadiazol-2-yl)-6′-methyl-[3,4′-bipyridine]-3′-carboxamide]
500 to 1000 | COc1nnc(NC(=O)c2cnc(C)cc2-c2cc(Br)c([S@+](C)[O-])cc2OC)s1 (single isomer, unassigned) [Example 322]
≤ 200 | COc1cnc(C)c(F)c1-c1cc(C)ncc1C(=O)Nc1nnc(O[C@H]2C[C@H]3C[C@@H]2C[C@@H]3O)s1 (single isomer, unassigned) [Example 261]
1000 to 10000 | COc1nnc(NC(=O)c2cnc(C)cc2-c2ccc(OC)c(C#N)c2)s1 [Example 345, 4-(3-cyano-4-methoxyphenyl)-N-(5-methoxy-1,3,4-thiadiazol-2-yl)-6-methylpyridine-3-carboxamide]
500 to 1000 | COc1nnc(NC(=O)c2cnc(C)cc2-c2ccc(F)c(F)c2C)s1 [Example 475, 4-(3,4-difluoro-2-methylphenyl)-N-(5-methoxy-1,3,4-thiadiazol-2-yl)-6-methylpyridine-3-carboxamide]
≤ 200 | COc1cnc(C)c(F)c1-c1cc(C)ncc1C(=O)Nc1nnc(OC2([C@H]3CCOC3)CC2)s1 (single isomer, unassigned) [Example 287]
1000 to 10000 | COc1nnc(NC(=O)c2cnc(C)cc2-c2ccc3occc(=O)c3c2)s1 [Example 438, N-(5-methoxy-1,3,4-thiadiazol-2-yl)-6-methyl-4-(4-oxo-4H-chromen-6-yl)nicotinamide]
≤ 200 | Cc1cc(-c2cc(Cl)ncc2OC(F)F)c(C(=O)Nc2nnc(O[C@@H]3CCC[C@@H](O)C3)s2)cn1 (single isomer, unassigned) [Example 251]
1000 to 10000 | COc1nnc(NC(=O)c2cnc(C)cc2-c2cc(C)nn2C)s1 [Example 420, 4-(1,3-dimethyl-1H-pyrazol-5-yl)-N-(5-methoxy-1,3,4-thiadiazol-2-yl)-6-methylpyridine-3-carboxamide]
1000 to 10000 | COc1nnc(NC(=O)c2cnc(C)cc2-c2cc(Cl)c([S@+]([O-])C3CC3)cc2OC)s1 (single isomer, unassigned) [Example 321]
≤ 200 | COc1cnc(Cl)cc1-c1cc(C)ncc1C(=O)Nc1nnc(OC2CCC23CCOC3)s1 (stereo not shown) [Example 296, N-(5-((6-oxaspiro[3.4]octan-1-yl)oxy)-1,3,4-thiadiazol-2-yl)-2′-chloro-5′-methoxy-6-methyl-[4,4′-bipyridine]-3-carboxamide]
≤ 200 | Cc1cc(-c2cc(Cl)ncc2OC(F)F)c(C(=O)Nc2nnc(O[C@H]3CCC[C@@H](O)C3)s2)cn1 (single isomer, unassigned) [Example 253]

same assay, conditions: Table 4; Pol theta (1-899) 5 nM, ATP, dT50 ssDNA

IC50 [nM] | Compound
≤ 200 | COc1nnc(NC(=O)c2cnc(C)cc2-c2cc(C(F)(F)F)ncc2OC)s1 [Example 57, 5′-methoxy-N-(5-methoxy-1,3,4-thiadiazol-2-yl)-6-methyl-2′-(trifluoromethyl)-(4,4′-bipyridine)-3-carboxamide]
500 to 1000 | COc1nnc(NC(=O)c2c[n+]([O-])c(C)cc2-c2cc(Cl)ncc2OC)s1 [Example 65, 2′-chloro-5′-methoxy-5-((5-methoxy-1,3,4-thiadiazol-2-yl)carbamoyl)-2-methyl-(4,4′-bipyridine) 1-oxide]
1000 to 10000 | COc1cccc(F)c1-c1cc(C)ncc1C(=O)Nc1nnc(O)s1 [Example 3, 4-(2-fluoro-6-methoxyphenyl)-N-(5-hydroxy-1,3,4-thiadiazol-2-yl)-6-methylnicotinamide]

same assay, conditions: Table 5; Pol theta (1-899) 5 nM, ATP, dT50 ssDNA

IC50 [nM] | Compound
≤ 200 | COc1cnc(C)c(F)c1-c1cc(C)ncc1C(=O)Nc1nnc(O[C@H]2C[C@@H]3CC[C@H]2O3)s1 (single isomer, unassigned) [Example 219]
≤ 200 | COc1cnc(Cl)cc1-c1cc(C)ncc1C(=O)Nc1nnc(O[C@H]2CC[C@H](OC)C2)s1 (racemic) [Example 149, rac-2′-chloro-5′-methoxy-N-(5-(((1R,3R)-3-methoxycyclopentyl)oxy)-1,3,4-thiadiazol-2-yl)-6-methyl-(4,4′-bipyridine)-3-carboxamide]
1000 to 10000 | COc1nnc(NC(=O)c2c[nH]nc2-c2cc(Cl)ncc2OC)s1 [Example 109, 3-(2-chloro-5-methoxypyridin-4-yl)-N-(5-methoxy-1,3,4-thiadiazol-2-yl)-1H-pyrazole-4-carboxamide]

Compound | IC50 [nM]
COc1cnc(Cl)cc1-c1cc(C)ncc1C(=O)Nc1nnc(O[C@H]2C[C@H](O)C2(C)C)s1 (single isomer, unassigned) [Example 184, 2′-chloro-N-(5-((1r,3r)-3-hydroxy-2,2-dimethylcyclobutoxy)-1,3,4-thiadiazol-2-yl)-5′-methoxy-6-methyl-(4,4′-bipyridine)-3-carboxamide] | ≤ 200
